In general, IC50 refers to the concentration that inhibits the measured activity by half.

A value given as a limit tells only on which side of the number the result lay.

This is an account of results in patent US6514964B1, “Fused cycloheptane and fused azacycloheptane compounds and their methods of use” (Amgen Inc., priority 1999, dated 2003).

The experiment has as its system human umbilical cord endothelial cells (HUVEC). The experiment can be described thus: HUVEC proliferation assay and/or HUVEC adhesion assay. The conditions noted are these: bound stated for the listed compounds. Type of experiment: cell-based. Here is the method:
HUVEC Proliferation Assay
1. Coat 3 NUNC polystyrene 96 well plate (VWR, 62409-120; lids 62409-118) with vitronectin (purified internally), fibronectin (Collaborative Biomed 40008A) or fibrinogen (Calbiochem 341578) 50 ng/well in 50 μl PBS, 1 hr @ RT.
a. rinse with 5 mls PBS (no Ca, Mg)
3. Rinse vitronectin plates 1× in 200 μl PBS −/− and add 3000 cells per well in 100 ul growth medium (EBM2 (Clonetics, CC-3156)+EGM2 bullet kit (CC-4176)).
4. Incubate 24 hours at 37° C. to allow attachment.
5. Remove growth medium and add 100 μl growth medium+drugs (25 μM and down by five fold steps in DMSO-0.25% final DMSO concentration).
6. Incubate for 3 days changing media (+drugs).
7. Remove non-adherent cells on Friday with Raindance 12 well plate washer.
8. Wash twice with 200 μl PBS (+Mg & Ca).
9. Tap out excess liquid.
10. Freeze @ −70° C. for 30 minutes.
11. Thaw plate and add 150 μl CyQuant fluorescent dye (Molecular Probes C-7026).
12. Read after 4 minutes @ 485λ (excitation), 530λ (emission).
1. Coat 2 NUNC polystyrene 96 well plates (VWR, 62409-120; lids 62409-118) with 50 μl vitronectin (purified internally) at 50 ng/well in PBS (−Mg & Ca), for 1 hour @ 37° C.
2. Rinse with PBS & block with 150 μl PBS/1% BSA (Sigma A8918), 1 hour at @ 37° C.
3. Prepare drug dilutions:
a. 400 fold concentrate in 100% DMSO
b. 0.25% DMSO [assay]final
c. 10 mM & down (25 μMfinal & down)
d. dilute 1 μl of 400 fold conc into 200 μl adhesion media
a. rinse with 5 ml PBS (no Ca, Mg)
6. Rinse blocking buffer from assay plate and add 50 μl of drug dilutions.
7. Resuspend cells in adhesion media, count and add 2e4 cells/well in 50 μl (4e5/ml).
8. Incubate 60 minutes @ 37° C.
9. Remove non-adherent cells with Raindance 12 well plate washer.
10. Wash twice with 200 μl PBS (+Mg & Ca)
11. Tap out excess liquid.
12. Freeze @ −70° C. for 30 minutes to overnite.
13. Thaw plate and add 150 μl CyQuant fluorescent dye (Molecular Probes C-7026).
14. Read after 2-5 minutes @ 485λ (excitation), 530λ (emission).
Adhesion medium: Media 199 (which contains […] and 0.8 mM MgSO4), 0.5% BSA, 10 mM HEPES, 1 mM MgCl2, and 1 mM MnCl2
As to `CS(=O)(=O)Nc1ccc2c(c1)CN(C(=O)NCCCc1ccc3c(n1)NCCC3)CCC2CC(=O)O` (stereo not shown) [Example 81, 2-{8-[(Methylsulfonyl)amino]-2-[N-(3-(1,2,3,4-tetrahydropyridino[2,3-b]pyridin-7-yl)Propyl)carbamoyl]-1H,3H,4H,5H-benzo[e]azepin-5-yl}acetic acid], the IC50 is no more than 30 µM.
In turn, `O=C(O)CC1CCN(C(=O)NCCCc2ccc3c(n2)NCCC3)Cc2cc(NS(=O)(=O)c3ccccc3)ccc21` (stereo not shown) [Example 82, 2-{8-[(Phenylsulfonyl)amino]-2-[N-(3-(1,2,3,4-tetrahydropyridino[2,3-b]pyridin-7-yl)propyl)carbamoyl]-1H,3H,4H,5H-benzo[e]azepin-5-yl}acetic acid] gave an IC50 of no more than 30 µM.
The compound `O=CNc1ccc2c(c1)CN(C(=O)NCCCc1ccc3c(n1)NCCC3)CCC2CC(=O)O` (stereo not shown) [Example 83, 2-{8-Carbonylamino-2-[N-(3-(1,2,3,4-tetrahydropyridino[2,3-b]pyridin-7-yl)propyl)carbamoyl]-1H,3H,4H,5H-benzo[e]azepin-5-yl}acetic acid] registered an IC50 of no more than 30 µM.
As to `CN(C)c1ccc2c(c1)CN(C(=O)NCCCc1ccc3c(n1)NCCC3)CCC2CC(=O)O` (stereo not shown) [Example 84, 2-{8-(Dimethylamino)-2-[N-(3-(1,2,3,4-tetrahydropyridino[2,3-b]pyridin-7-yl)propyl)carbamoyl]-1H,3H,4H,5H-benzo[e]azepin-5-yl}acetic acid], the half-inhibitory concentration (IC50) is no more than 30 µM.
